From PMC9822434, “Estradiol-Based Salicylaldehyde (Thio)Semicarbazones and Their Copper Complexes with Anticancer, Antibacterial and Antioxidant Activities” (Molecules, 2022)
Blank lines part the entries; values can stand above or below the compound they belong to.

Legend:
[1] = test system: S. aureus ATCC 25928; experiment: MIC determination; format: cell-based, Staphylococcus aureus; conditions: Gram-positive S. aureus ATCC 25928, Mueller Hinton Broth
Description: (§1) Klebsiella pneumoniae (ATCC 49619), Escherichia coli (ATCC 25922), Staphylococcus aureus (ATCC 25928) and Enterococcus faecalis (ATCC 29212) strains were used as Gram-negative and Gram-positive bacterial cultures. The stock solutions of the tested compounds (dissolved in 90% (v/v) DMSO/H2O at 10 mM concentration) were diluted in 100 μL of Mueller Hinton Broth, and then two-fold serial dilutions were performed. As a starting point, 100 μM concentration of the compounds was used. Then, 10^−4 dilution of an overnight bacterial culture in 100 μL of medium was added to each well, with the exception of the medium control wells. Minimum inhibitory concentration (MIC) values of compounds were determined according to our previous work.

[2] = test system: E. faecalis ATCC 29212; experiment: MIC determination; format: cell-based, Enterococcus faecalis; conditions: Gram-positive E. faecalis ATCC 29212, Mueller Hinton Broth
Description: as §1

[3] = DPPH free radical scavenging assay; conditions: for TEAC (Trolox equivalent antioxidant capacity): DPPH assay in ethanol; for TEAC (Trolox equivalent antioxidant capacity) / % Scavenging Effect: 25 °C; for % Scavenging Effect: DPPH:compound = 1:1 ratio after 30 min, ethanol; for IC50: in ethanol, T = 25 °C, cDPPH = 50 µM, ccompound = 5−50 µM
Description: The DPPH (Sigma-Aldrich) free radical scavenging capacity was studied at 25.0 ± 0.1 °C on an Agilent Cary 3500 spectrophotometer with tightly closed tandem cuvette according to our approach with some modifications. The stock solution of DPPH (100 µM) was prepared in ethanol, and 0.5 mL of this solution was added to one pocket of the cuvette and 0.5 mL of the tested compound in different concentrations in ethanol was added to another. The final concentration of the studied compounds was in the range 5–50 µM, where for DPPH concentration, it was always 50 µM. A standard compound Trolox (Sigma-Aldrich) was used as a positive control. The percentage of the antioxidant activity (AA), IC50 values (the concentration of compound at which it reduced 50% of DPPH) and Trolox equivalent antioxidant capacity (TEAC) were calculated.

[4] = test system: A549; experiment: MTT cytotoxicity assay; format: cell-based, human; conditions: 24 h incubation time
Description: (§2) To test the biological effects of the Cu(II) complexes and the ligands on human cancer cells, DU-145 prostate, A549 lung, and MCF-7 breast adenocarcinoma cells, as well as the multidrug-resistant MCF-7 KCR breast cancer cells were utilized. All the cell lines were maintained in RPMI-1640 media (Biosera, Nuaille, France) complemented with 10% fetal bovine serum (FBS), 2 mM L-glutamine, 0.01% streptomycin and 0.005% penicillin, (Biosera, Nuaille, France) and were cultured under standard conditions in a 37 °C incubator at 5% CO2 and 95% humidity. The cell lines were originally obtained from ATCC.
(§3) The effect of the complexes and of their ligands alone on the viability (on the metabolic activity) of human cancer cells was assessed by MTT assay. The tested compounds were dissolved in 90% (v/v) DMSO/H2O at 10 mM concentration. Equimolar solutions of the ligand CuCl2 salt were used for the cytotoxicity assays. The metal salts without ligands were also tested. For this, 1 × 10^4 cells/well were seeded into 96-well plates and left to grow overnight. On the following day, cells were exposed to increasing concentrations of each compound (0; 2.5; 5; 10; 15; 20 µM). After a 24 h incubation, cells were washed with PBS buffer and then incubated with 0.5 mg/mL MTT (Sigma-Aldrich, St Louis, Missouri, MO, USA) for 1 h at 37 °C. The formazan crystals were solubilized in DMSO (Molar Chemicals, Halásztelek, Hungary), and the absorbance of samples was determined at 570 nm using a Synergy HTX plate reader (BioTek, Winooski, Vermont, VT, USA). Absorption corresponding to the untreated control samples was considered as 100%.

[5] = test system: DU-145; experiment: MTT cytotoxicity assay; format: cell-based, human; conditions: DU-145, MTT, 24 h incubation time
Description: as §2, §3

[6] = test system: MCF-7 KCR; experiment: MTT cytotoxicity assay; format: cell-based, human
Description: as §2, §3

[7] = test system: MCF-7; experiment: MTT cytotoxicity assay; format: cell-based, human; conditions: MCF-7, MTT, 24 h incubation time
Description: as §2, §3

[8] = cyclic voltammetry of Cu(II)-(T)SC (1:1) systems; format: physicochemical; conditions: 90% (v/v) DMSO/H2O, pH 7.40 (10 mM HEPES), 10 mV/s, 25 °C, I = 0.1 M (nBu4NPF6)
Description: Cyclic voltammograms of TSCs derivatives and their Cu(II) complexes at 25.0 ± 0.1 °C were recorded. nBu4NPF6 was used as a supporting electrolyte, and measurements were performed at pH 7.4. The complexes were obtained by mixing the ligand dissolved in DMSO with aqueous solution of CuCl2 in 1:1 ratio. The final concentration of stock was 1 mM. Measurements were performed on a conventional three-electrode system under argon atmosphere using an Autolab PGSTAT 204 potentiostat/galvanostat monitored with Metrohm’s Nova software. Samples were purged for 10 min with argon before recording the cyclic voltammograms. Platinum electrode was used as the working and auxiliary electrode and Ag/AgCl/3 M KCl as the reference electrode. The electrochemical system was calibrated with an aqueous solution of K3[Fe(CN)6] (E1/2 = +0.458 V vs. NHE). Redox potentials were obtained at 10 mV/s scan rate in the range of −1.3 to +0.8 V.

[9] = direct redox reaction of the Cu(II) complexes with GSH (UV–vis, anaerobic); format: physicochemical; conditions: Cu(II) complex (25 µM) of the named ligand with GSH (1.25 mM), pH 7.4, anaerobic, 30% (v/v) DMSO/H2O, 25.0 °C
Description: The redox reaction of the Cu(II) complexes with GSH and ascorbic acid was studied at 25.0 ± 0.1 °C, at pH 7.40 (10 mM HEPES with 0.1 M KCl) on an Agilent Cary 8454 diode array spectrophotometer using a special, tightly closed tandem cuvette (Hellma Tandem Cell, 238-QS). The complex and the reducing agent were separated until the reaction was triggered. Both isolated pockets of the tandem cuvette were completely deoxygenated by bubbling argon for 10 min before mixing the reactants. Spectra were recorded before and then immediately after the mixing, and changes were followed till no further absorbance change was observed. The stock solutions of the reducing agents and the complexes were freshly prepared every day.
During the calculations, the absorbance (A)−time (t) curves were fitted and analyzed at the λmax of the complex. (A0 − Afinal) × e ^(−a×t) + Afinal equation was used where A0, Afinal and a parameters were refined and accepted at the minimal value of the weighted sum of squared residuals (difference between the measured and calculated absorbance values) at the given wavelength. Then observed rate constants (kobs) of the redox reaction were obtained from the data points of the simulated absorbance–time curves as the slope of the ln(A/A0) versus t plots.

[10] = format: physicochemical; conditions: for logβ [CuLH−1] / logβ [CuL]+: Cu(II) complex of the named ligand, 30% (v/v) DMSO/H2O, T = 25.0 °C, I = 0.1 M (KCl); for pCu5.0: calculated at pH 5.0, cCu(II) = 20 µM; for pCu5.0 / pCu6.0 / pCu7.4: cligand = 20 µM; for pCu6.0: estimated at pH 6.0, cCu(II) = 20 µM; for pCu7.4: estimated at pH 7.4, cCu(II) = 20 µM
Description: (§4) An Orion 710A pH-meter equipped with a Metrohm combined electrode (type 6.0234.100) and a Metrohm 665 Dosimat burette were used for the UV–vis titrations at 25.0 ± 0.1 °C. Ionic strength of 0.10 M (KCl) was used to keep the activity coefficients constant. The titrations were performed with carbonate-free KOH solution of known concentration (0.10 M) with 30% (v/v) DMSO content. […] The average water ionization constant (pKw) is 14.54 ± 0.05 in the 30% (v/v) DMSO/H2O mixture. Argon was always passed over the solutions during the titrations. An Agilent Cary 8454 diode array spectrophotometer was used to record the UV–vis spectra at an interval of 200–800 nm. The path length was 2 cm. Spectrophotometric titrations were performed using a 0.1 M KOH titrant solution with 30% (v/v) DMSO on samples with 30% (v/v) DMSO containing HCl, KCl and the ligand at 20 μM concentration in the pH range 2.0–12.5 in the absence or in the presence of 1 or 0.5 equiv. Cu(II) ions. Proton dissociation constants (Ka) of the TSC ligands, the overall stability constants (β) of the Cu(II) complexes and the UV–vis spectra of the individual species were calculated by the computer program PSEQUAD [41] as was done in our previous works.

[11] = physchem; format: physicochemical
Description: as §4

[12] = Staphylococcus aureus, ATCC25928
[13] = Enterococcus faecalis, ATCC29212
[14] = Homo sapiens, MCF7, 24 h incubation time

MIC [1]: 0.78 µM
MIC [2]: 12.5 µM
IC50 [3]: 16.4 µM
formal potential E’ vs. Ag/AgCl/3M KCl [8]: +0.33 V
Compound: CN(C)C([S-])=N/N=C/c1cc2c(cc1[O-])CC[C@@H]1[C@@H]2CC[C@]2(C)[C@@H](O)CC[C@@H]12.O.[Cu+2] [Cu(II)-Me2-estradiol-TSC]
TEAC (Trolox equivalent antioxidant capacity) [3]: 0.7
% Scavenging Effect [3]: 40.4%
IC50 [4]: 3.44 ± 1.02 µM
IC50 [5]: 7.85 ± 1.08 µM
IC50 ([6]; 24 h incubation time): > 20 µM
IC50 [7]: 10.1 ± 1.36 µM

IC50 [3]: 12 µM
Compound: Cc1c(C)c2c(c(C)c1O)CCC(C)(C(=O)O)O2 (centres unmarked) [Trolox, 6-hydroxy-2,5,7,8-tetramethylchroman-2-carboxylic acid, reference compound]
TEAC (Trolox equivalent antioxidant capacity) [3]: 1
% Scavenging Effect [3]: 100%

Compound: CN(C)C(=S)NN=Cc1cc2c(cc1O)CC[C@@H]1[C@@H]2CC[C@]2(C)[C@@H](O)CC[C@@H]12 [Me2-estradiol-TSC, 2-((3,17 β-Dihydroxy-estra-1,3,5(10)-triene-2-yl)methylene)-N,N-dimethylhydrazine-1-carbothioamide]
MIC [1, 12]: > 100 µM
MIC [2, 13]: > 100 µM
kobs [9]: 0.31 ± 0.06 min⁻¹
TEAC (Trolox equivalent antioxidant capacity) [3]: 0.9
% Scavenging Effect [3]: 100%
IC50 [3]: 13.6 µM
IC50 ([4]; Homo sapiens): > 20 µM
IC50 ([5]; Homo sapiens): > 20 µM
IC50 [6, 14]: > 20 µM
IC50 ([7]; Homo sapiens, MCF7): > 20 µM
pKa [CuL]+ [10]: 3.85
logβ [CuLH−1] [10]: 10.11 ± 0.03
logβ [CuL]+ [10]: 13.96 ± 0.03
pCu5.0 [10]: 8.0
pCu6.0 [10]: 9.6
pCu7.4 [10]: 12.4
pKa [11]: 9.2 ± 0.03

Compound: CNC(=S)NN=Cc1cc2c(cc1O)CC[C@@H]1[C@@H]2CC[C@]2(C)[C@@H](O)CC[C@@H]12 [Me-estradiol-TSC, 2-((3,17 β-Dihydroxy-estra-1,3,5(10)-triene-2-yl)Methylene)-N-methylhydrazine-1-carbothioamide]
MIC [1, 12]: > 100 µM
MIC [2, 13]: > 100 µM
kobs [9]: 0.22 ± 0.02 min⁻¹
TEAC (Trolox equivalent antioxidant capacity) [3]: 0.8
% Scavenging Effect [3]: 31.0%
IC50 [3]: 15.4 µM
IC50 ([4]; Homo sapiens): 15.8 ± 1.03 µM
IC50 ([5]; Homo sapiens): > 20 µM
IC50 [6, 14]: > 20 µM
IC50 ([7]; Homo sapiens, MCF7): > 20 µM
pKa [CuL]+ [10]: 4.08
logβ [CuLH−1] [10]: 9.59 ± 0.03
logβ [CuL]+ [10]: 13.68 ± 0.03
pCu5.0 [10]: 7.6
pCu6.0 [10]: 9.1
pCu7.4 [10]: 11.8
pKa [11]: 9.28 ± 0.03

MIC [1]: 6.25 µM
MIC [2]: 50 µM
IC50 [3]: 20.3 µM
formal potential E’ vs. Ag/AgCl/3M KCl [8]: +0.29 V
Compound: CNC([S-])=N/N=C/c1cc2c(cc1[O-])CC[C@@H]1[C@@H]2CC[C@]2(C)[C@@H](O)CC[C@@H]12.O.[Cu+2] [Cu(II)-Me-estradiol-TSC]
TEAC (Trolox equivalent antioxidant capacity) [3]: 0.6
% Scavenging Effect [3]: 33.6%
IC50 [4]: 3.71 ± 1.02 µM
IC50 [5]: 15.8 ± 1.08 µM
IC50 ([6]; 24 h incubation time): > 20 µM
IC50 [7]: 16.7 ± 1.66 µM

IC50 [3]: > 50 µM
Compound: C[C@]12CC[C@@H]3c4ccc(O)cc4CC[C@H]3[C@@H]1CC[C@@H]2O [estradiol]
% Scavenging Effect [3]: 0.5%
